Non-standard residues stand in square brackets, D forms with d. Residues, ends and D or L forms follow the SMILES beside them. ξ: configuration not given here. *: point of attachment. ξF = NC(Cc1ccccc1)C(=O)O; Boc = CC(C)(C)OC(=O)*
Row | melting point | SMILES
1 | 137 °C | CC(=O)OC1CSC(Oc2cccc(-c3ccncc3)n2)C(OC(C)=O)C1OC(C)=O (configuration not stated)
2 | 142 to 143 °C | CC(C)C1Cc2cnc3c(c2C1(O)CCN)CCO3 (configuration not stated)
3 | 134 °C | CCOC(=O)C1(c2cccc(Cl)c2C)CCN(S(=O)(=O)c2ccc(C)cc2)CC1
4 | 158 to 160 °C | CNC(=O)C(Cc1ccccc1)NC(=O)CNC(=O)OC(C)(C)C (stereo not drawn) (Boc-Gly-[ξF]-NHMe)
5 | 189 to 191 °C | O=C(O)c1ccc2c(c1F)OC(c1ccccc1)(c1ccccc1)O2
6 | 143 to 144 °C | CN(C)C(N)=Nc1ccccc1N1CCOCC1
7 | 90 to 92 °C | CCOc1nnc2cc(Cl)ccc2n1
8 | 140 to 142 °C | CC(C)(C)NNC(=O)c1nn(-c2ccc(F)cc2F)c2c1C1CCC2C1 (configuration not stated)
9 | 191 to 193 °C | O=C1c2ccccc2S(=O)(=O)N1/C=C/CSc1nnnn1-c1ccccc1
10 | 161 °C | CCOC(=O)c1ccc(Nc2c(NCc3ccccc3)cc(C(=O)OCC)cc2S(N)(=O)=O)cc1
11 | 268 to 269 °C | NC(=O)c1cc2c(c(C(=O)O)c1)NCCC2
12 | 107 to 108 °C | Oc1cccnc1Oc1cccc(Br)c1
13 | 113 °C | COc1ccc(CN(C)CCSc2ccc(NC(=O)c3cccc4c(=O)c5ccccc5[nH]c34)cc2)cc1OC
14 | 84 to 86 °C | OCC1C(c2ccc(F)cc2)CCC12C=Cc1ccccc12 (configuration not stated)
15 | 101 to 102 °C | C=CCOc1ccc2cc(S(N)(=O)=O)sc2c1
16 | 175 to 180 °C | CC(C)(C)OC(=O)CC(NC(=O)Nc1cccc(C(=O)O)c1)C(=O)Nc1ccccc1C(=O)c1ccccc1 (configuration not stated)
17 | 108 to 118 °C | Cc1cccc(C(=O)Nc2ccc(-c3ccc(-c4ccccc4Cl)n3Cc3cccc(N)n3)cc2)c1
18 | 163 to 165 °C | CCOC(=O)c1nn(-c2cccc(Br)c2)c(=O)c2c(N)scc12
19 | 135 °C | Cc1nn(C)c(C#N)c1NC=O
20 | 283 to 285 °C | COC(=O)[C@H]1Cc2c(sc3ccccc23)[C@@H](c2cccc(O)c2)N1
21 | 105 to 108 °C | Cc1oc(-c2ccco2)nc1CCOc1ccc(C#N)cc1
22 | 206 to 207 °C | CC(=O)N1CCC(c2cc(F)c(C(=O)O)cc2F)CC1
23 | 114 to 115 °C | Cc1ccc(C=O)c(OCc2ccc(OCc3nc(-c4ccccc4)oc3C)cc2)n1
24 | 118 to 119 °C | N#CN=C(NCCSCc1ncccc1Br)NCCSCc1ncccc1Br
25 | 208 to 209 °C | O=C1Cc2c(ccc3ccc(C(O)C(F)(F)F)cc23)O1 (configuration not stated)

Row | melting point | SMILES
26 | 195 to 200 °C | CC(NC(=O)Cc1cc(F)cc(F)c1)C(=O)NC1NC(=O)Cc2cc(F)ccc21 (configuration not stated)
27 | 147 to 149 °C | CCc1cn(C2OC(CNC(=O)C(C)Oc3c(Cl)cc(Cl)c(OC)c3Cl)C(OC(=O)C(NC(=O)OC(C)(C)C)C(C)C)C2F)c(=O)[nH]c1=O (configuration not stated)
28 | 213 to 214 °C | CC(=O)NCc1cccc(Nc2nccc(-c3sc(N(C)c4cc(Cl)cc(Cl)c4)nc3C)n2)c1
29 | 119 to 121 °C | CNC(=O)c1ccccc1-c1cc(-c2ccccc2)no1
30 | 253 to 255 °C | O=C(CCl)Nc1c(I)cc(I)c(C(=O)O)c1I
31 | 153 to 159 °C | CCCCCCCCON1C(C)(C)CC(NC(=O)CCc2cc(-n3nc4ccccc4n3)c(O)c(C(C)(C)C)c2)CC1(C)C
32 | 116 to 118 °C | COCC(C)c1ccc(N2Cc3ccc(OC)cc3C2=O)cc1 (configuration not stated)
33 | 103 to 105 °C | CCCCNc1c(N)c(S)nc(C)c1C(=O)OCC
34 | 105 °C | CCCCCCCCCCCCCCCCCCSCCCCCC(N)=O
35 | 106 to 109 °C | CCc1ccsc1C(=O)O
36 | 104 to 106 °C | CC(=O)c1ccc(OCCCCOc2ccccc2)cc1
37 | 185 to 187 °C | O=C(O)c1cccc(Oc2ccccc2Cl)c1[N+](=O)[O-]
38 | 235 to 237 °C | C=CC(=O)NC1Cc2ccc(-c3ccc(=O)[nH]n3)cc2C1 (configuration not stated)
39 | > 275 °C | Nc1ccc2c(c1)CN1CC(=O)NC1=N2
40 | 115 to 118 °C | O=C1c2cccc3cccc(c23)C(=O)N1CCCO
41 | 218 to 220 °C | CC(=O)NC(CSSc1ccccc1C(=O)Nc1ccc(S(N)(=O)=O)cc1)C(=O)O (configuration not stated)
42 | 134 to 135 °C | Cc1ccc(S(=O)(=O)N[C@@H](C)C(=O)O)cc1
43 | 203 to 205 °C | Cc1cc(Cl)cc2c(=O)oc(-c3cc(Br)nn3-c3ncccc3Cl)nc12
44 | 85 to 100 °C | CC(C)(C)OC(=O)NC[C@H]1CN(c2ccc3c(c2)CCCc2cn[nH]c2-3)C(=O)O1
45 | 335 to 336 °C | CC1=NNC(=O)c2cccc3[nH]cc1c23
46 | 212 to 213 °C | Cc1nc(-c2cn(Cc3ccc(F)cc3)nn2)sc1C(=O)NCc1cccnc1
47 | 228 to 230 °C | COc1ncccc1C(=O)NC1CN(C)CCn2c1nc(-c1ccncn1)cc2=O (racemic)
48 | 137 to 138 °C | CCCOc1ccccc1-c1nc(O)cc(C(=O)OCC)n1
49 | 218 °C | CCc1c(C(=O)O)nn(-c2ccc(Cl)cc2Cl)c1-c1ccc(Br)cc1
50 | 125 to 127 °C | CC(=O)Nc1ccc(OCCCCl)cc1

Row | melting point | SMILES
51 | 110 to 111 °C | O=C(NCCO)c1ccnc(-c2cccc3cc(Cc4cccc(C(F)(F)F)c4)sc23)c1F
52 | 278 to 279 °C | O=C(O)c1ccc(-c2nc(-c3ccc(Oc4ccccc4)cc3)no2)cc1
53 | 178 °C | CCc1ccc(OCCc2c[nH]cn2)cc1
54 | 85 °C | O=C(O)CCNc1cccc(CNC(=O)C2Cc3ccccc3N2S(=O)(=O)c2ccc(-c3cccc(C(F)(F)F)c3)cc2)c1 (configuration not stated)
55 | 57 °C | CCOC(=O)C1COc2ccc(C(C)=O)cc2O1 (configuration not stated)
56 | 98 to 104 °C | O=c1c2c(Cl)cc(N3CCNCC3)cc2n(Cc2ccccc2)c(=O)n1Cc1cccc(I)c1
57 | 95 to 96 °C | COCCNC(=O)c1cc2cc(OCCNC[C@H](O)COc3ccccc3)ccc2o1
58 | 119 °C | CCCCN1CC2CN(c3ccc([N+](=O)[O-])cc3[N+](=O)[O-])CC(C1)C2(C)C
59 | 62.5 to 63 °C | CCOC(C#Cc1cc(OC)c(OC)c(OC)c1)OCC
60 | 96 to 97 °C | CC(C)(C)OC(=O)C=Cc1ccc2ccccc2n1
61 | 181 to 182 °C | C[C@@H](NC(=O)c1cnn(-c2ccc(Cl)cc2)c1C1CC1)[C@](O)(Cn1cncn1)c1ccc(F)cc1F
62 | 137 to 138 °C | N#CCCNC(=O)c1cccc(-c2cccc3sc(Cc4cccc(C(F)(F)F)c4)cc23)c1
63 | 128 to 129 °C | CC(=O)OCC(=O)C1=CCC2C3CCC4=CC(=O)CCC4(C)C3=CCC12C (configuration not stated)
64 | 138 °C | CC1C(=O)N(c2cccc(Cl)c2)N=C1N (configuration not stated)
65 | 207 to 211 °C | CC(C)(C)OC(=O)N1CCC(c2nc3cc(-c4ccc(-n5cnnn5)cc4)ccc3o2)CC1
66 | 110 to 111 °C | COc1cc(Cl)cc(Cl)c1C=O
67 | 130 to 132 °C | Nc1cccnc1CCCCNc1ncc(Cc2cccnc2)c(=O)[nH]1
68 | 186 to 187 °C | COc1cc2oc(-c3ccc(F)cc3)c(Br)c2c(OC)c1Br
69 | 273 to 275 °C | O=c1c2c(Cc3ccccc3Cl)n[nH]c2c2cccnc2n1-c1cccc(OC(F)(F)F)c1
70 | 131 to 132 °C | COc1ccc(-c2c(C)ccn2-c2ccc(S(C)(=O)=O)cc2)cc1
71 | 155 to 157 °C | O=C(NCCO)/C(=C/c1ccc(OC(F)F)cc1)NC(=O)c1ccc(OCCc2ccccc2)cc1
72 | 123 to 126 °C | Oc1ccc(NCCCCCCBr)cc1
73 | 156 °C | CC(C)(C)OC(=O)N1CCC(C(=O)O)(C2CCCCC2)CC1
74 | 30.5 to 31.5 °C | COC(=O)CCCCCCCCCCCCc1ccccc1
75 | 133 to 135 °C | O=C(CN1CCN(CC(=O)N2CCC3(CC2)Cn2cc([N+](=O)[O-])nc2O3)CC1)Nc1ccc(C(F)(F)F)cc1

Row | melting point | SMILES
76 | 147 to 149 °C | CC(=Cc1ccc(-n2cnc3c2CCCC3)cc1)[N+](=O)[O-]
77 | 47 to 48 °C | COc1cc(C(=O)NCc2ccc(N)cc2)cc(OC)c1OC(C)=O
78 | 110 °C | CC1(C)COc2cc(Br)ccc2C(O)(c2ccccn2)C1 (configuration not stated)
79 | 130 to 131 °C | Cc1oc(-c2ccccc2)nc1CCc1ccc(COc2ccccc2CC(=O)O)cc1
80 | 80 to 82 °C | CN(CC(O)c1ccc(Br)cc1)C(=O)OC(C)(C)C (configuration not stated)
81 | 160 to 162 °C | Oc1cccnc1Cc1cccc(Br)c1
82 | 50 to 52 °C | Cc1oc(-c2ccc(F)cc2)cc1C(C)O (configuration not stated)
83 | 191 to 192 °C | CCCn1c(=O)c(N)nc2ccccc21
84 | 156 to 160 °C | CNC(=O)c1ccc(Br)c2nsnc12
85 | 239 to 240 °C | O=C1Nc2cccnc2N(C(=O)Cl)c2ccccc21
86 | 114 to 116 °C | Brc1ccccc1Cc1nc(-c2ccncc2)cs1
87 | 193 to 195 °C | O=C(NC1(C(=O)O)CCCCC1)C(CS)Cc1ccccc1 (configuration not stated)
88 | 199 to 201 °C | CCCc1n[nH]c2c(=O)[nH]c(-c3ccccc3OCC)nc12
89 | 62 to 72 °C | O=S(=O)(CC1CC=CCO1)c1ccc(Oc2ccc(OC(F)(F)F)cc2)cc1 (configuration not stated)
90 | 260 °C | CC(C)(C)c1cc(C2(C)NC(=O)NC2=O)cc(C(C)(C)C)c1O (configuration not stated)
91 | 114 to 116 °C | COc1ccnc(-n2cnc3ccccc32)n1
92 | 189 to 194 °C | COc1cc(-c2c(-c3ccc(F)cc3)nc3ccc(N4CCN(C)CC4)nn23)ccn1
93 | 147 °C | CNc1cc(OC)c(OC)cc1[N+](=O)[O-]
94 | 122 to 124 °C | Cc1cc(C2(C(F)(F)F)CC(c3ccc(F)cc3)=NO2)ccc1NC(=O)c1cccc(N)c1C(=O)NC(C)C (configuration not stated)
95 | 110 to 113 °C | N#Cc1cc(OCCOCC2CC2)ccc1OCC(O)CNCCNC(=O)Nc1ccccc1 (configuration not stated)
96 | 186 to 187 °C | CSc1ccc(NC(C#N)c2ccc(C)cc2)cc1 (configuration not stated)
97 | 203 to 204 °C | COc1cc(NC(=O)/C=C/c2ccc(C(C)(C)C)cc2)ccc1O
98 | 230 to 232 °C | Cc1cc(C)c(C2CN(c3cc4[nH]cc(C(=O)O)c(=O)c4cc3F)CCN2)o1 (configuration not stated)
99 | 294 to 295 °C | O=C(c1ccccc1)c1cccc(Cc2c(O)c3ccc(Cl)cc3[nH]c2=O)c1

Row | SMILES | melting point
100 | Cc1cccc2c1C(=O)N1CC[C@H]1c1c(C(=O)OC(C)(C)C)ncn1-2 | 191 to 192 °C
101 | COC(=O)c1sc(OC)cc1OP(=O)(OC)OC | 35 °C
102 | COC1=CC2=CCC3C(=CCC4(C)C(=O)CCC34)C2(C)CC1 (configuration not stated) | 153 °C
